The source of these data is PubChem BioAssay (NCI).

Several values for one entry are separate records, joined by “and”; a condition that tells them apart may be missing. Identical values can stand only once.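 Five concentrations, 48 hours, 96-well plates. At the GI50, growth is halved. TGI marks complete inhibition of growth.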

Among the test systems are SK-MEL-2 melanoma; PC-3 prostate; U251 CNS; RPMI-8226 leukemia; CCRF-CEM leukemia; TK-10 renal; SNB-19 CNS; HCT-116 colon; OVCAR-4 ovarian; SF-295 CNS.
What all share (experiment): inhibition of tumour cell growth, NCI panel, 48 h

Take `COC(=O)c1cc(O)c2c(c1C(=O)OC)C[C@H]1[C@@H]3CC=C4C[C@@H](O)CC[C@]4(C)[C@H]3CC[C@]21C`: the GI50 was 2.79 µM in the test on SK-MEL-2 melanoma; 2.51 µM with PC-3 prostate; 1.93 µM in the test with U251 CNS; 1.57 µM with RPMI-8226 leukemia; 1.71 µM in the test with CCRF-CEM leukemia; 3.83 µM in the test on TK-10 renal. The GI50 in the test on SNB-19 CNS is 4.1 µM; in the test on HCT-116 colon, 3.09 µM; in the test on OVCAR-4 ovarian it was 3.59 µM; with SF-295 CNS, 1.72 µM. Besides, the TGI with SK-MEL-2 melanoma came out at 5.6 µM; in the test on PC-3 prostate, 13.3 µM; in the test on U251 CNS it was 7.82 µM; in the test on RPMI-8226 leukemia, 4.96 µM; in the test on CCRF-CEM leukemia, 4.99 µM; in the test on TK-10 renal, 11.8 µM. The TGI with SNB-19 CNS came to 23.8 µM; in the test with HCT-116 colon, 14.6 µM; with OVCAR-4 ovarian, 15.8 µM; in the test with SF-295 CNS it was 4.4 µM.

In the case of `CC1(CCC(=O)OC2CCCCC2)OCCO1`, the TGI in the test with SK-MEL-2 melanoma, in the test on PC-3 prostate, in the test with U251 CNS, with RPMI-8226 leukemia, in the test on CCRF-CEM leukemia and in the test on TK-10 renal was more than 100 µM each time. The TGI with SNB-19 CNS, in the test on HCT-116 colon, in the test on OVCAR-4 ovarian and with SF-295 CNS was more than 100 µM throughout.

Regarding `Cc1ccc(C)c(C2NC(=O)c3ccccc3N2)c1` (stereo not given), the TGI was 72.6 µM in the test with SK-MEL-2 melanoma; 28.3 µM with PC-3 prostate; 17.9 µM in the test on U251 CNS; 16.4 µM in the test on RPMI-8226 leukemia; more than 25.5 µM in the test on CCRF-CEM leukemia; more than 100 µM with TK-10 renal. Moreover, the TGI in the test with SNB-19 CNS is more than 49.5 µM; in the test on HCT-116 colon, 19.8 µM; with OVCAR-4 ovarian, more than 100 µM; in the test on SF-295 CNS it was more than 33.1 µM.

`COc1cc(Nc2nc3ccccc3cc2C(=O)Nc2ccc(F)c(F)c2)cc(OC)c1OC`: the GI50 in the test with SK-MEL-2 melanoma was 2.1 µM; in the test on PC-3 prostate it was 2.21 µM; in the test on U251 CNS it was 3.36 µM; with RPMI-8226 leukemia, 2.16 µM; in the test with CCRF-CEM leukemia, 3.12 µM; in the test with TK-10 renal, 4.52 µM. Moreover, the GI50 with SNB-19 CNS was 3.55 µM; in the test with HCT-116 colon it was 2.84 µM; in the test with OVCAR-4 ovarian, 2.8 µM; in the test with SF-295 CNS, 2.85 µM. Besides, the TGI in the test on SK-MEL-2 melanoma is 5.98 µM; in the test on PC-3 prostate, 7.9 µM; in the test on U251 CNS, more than 100 µM; in the test on RPMI-8226 leukemia, 6.07 µM; in the test with CCRF-CEM leukemia, more than 100 µM; in the test on TK-10 renal it was more than 100 µM. For the same molecule, the TGI was more than 100 µM with SNB-19 CNS, 9.08 µM in the test on HCT-116 colon, 8.56 µM in the test on OVCAR-4 ovarian and 10.2 µM with SF-295 CNS.

Take `CN1C(=O)N[C@H]2[C@@H]3NC(=O)c4ccc(Br)n4[C@@H]3C[C@]21O`: the GI50 was 0.0568 µM with SK-MEL-2 melanoma; 0.475 µM in the test on PC-3 prostate; 0.0714 µM in the test on U251 CNS; 0.0831 µM in the test with RPMI-8226 leukemia; 0.0252 µM with CCRF-CEM leukemia; 0.429 µM in the test with TK-10 renal. The GI50 in the test on SNB-19 CNS was 0.0351 µM; in the test on HCT-116 colon it was 0.112 µM; in the test with OVCAR-4 ovarian it was 0.093 µM; in the test with SF-295 CNS, 0.273 µM. For the same molecule, the TGI in the test on SK-MEL-2 melanoma amounted to 0.194 µM; in the test with PC-3 prostate, 5.42 µM; in the test on U251 CNS, 1.55 µM; with RPMI-8226 leukemia it was 0.417 µM; in the test with CCRF-CEM leukemia it was 0.327 µM; in the test with TK-10 renal, 4.51 µM. Moreover, the TGI in the test on SNB-19 CNS worked out at 0.576 µM; with HCT-116 colon, 2.39 µM; in the test on OVCAR-4 ovarian it was 1.56 µM; with SF-295 CNS, 3.21 µM.

`Cc1sc2c(c1C)C(c1ccc(Cl)cc1)=N[C@@H](CC(=O)OC(C)(C)C)c1nnc(C)n1-2`: the GI50 in the test on SK-MEL-2 melanoma is 5.51 µM and 5.34 µM; with PC-3 prostate, 1.58 µM and 1.08 µM; in the test on U251 CNS, 2.45 µM and 1.24 µM; in the test with RPMI-8226 leukemia it was 0.142 µM and 0.0397 µM; in the test on CCRF-CEM leukemia, 0.644 µM and 0.773 µM; in the test on TK-10 renal it was 0.154 µM and 0.0583 µM. Besides, the GI50 was 0.629 µM and 0.421 µM with SNB-19 CNS; 0.44 µM and 0.311 µM with HCT-116 colon; 0.123 µM and 0.15 µM in the test on OVCAR-4 ovarian; 0.365 µM and 0.182 µM in the test with SF-295 CNS. In addition, the TGI with SK-MEL-2 melanoma is 21.8 µM and 22.5 µM; in the test on PC-3 prostate, 24.6 µM and 16.7 µM; in the test with U251 CNS, 20.6 µM and 19 µM; with RPMI-8226 leukemia it was 2.92 µM and 0.477 µM; with CCRF-CEM leukemia it was 23 µM and 22.9 µM; in the test on TK-10 renal, 12.7 µM and 13.4 µM. The TGI is > 47.2 µM and 18.9 µM in the test with SNB-19 CNS; 16.4 µM and 15.4 µM with HCT-116 colon; 17.2 µM and 16.1 µM in the test on OVCAR-4 ovarian; 18.2 µM and 15.5 µM with SF-295 CNS.

With `Cc1cccc(C)c1NC(=O)Nc1ccc(S(N)(=O)=O)cc1`, the TGI in the test with SK-MEL-2 melanoma, in the test on PC-3 prostate, with U251 CNS, in the test on RPMI-8226 leukemia, in the test on CCRF-CEM leukemia and with TK-10 renal was more than 100 µM in each case. Besides, the TGI in the test on SNB-19 CNS, in the test on HCT-116 colon, with OVCAR-4 ovarian and with SF-295 CNS was more than 100 µM each time.

As for `CN/N=C(\C)C(CN(C)C)C(c1ccccc1)c1c(O)c2ccccc2oc1=O` (stereo not given), the TGI in the test with SK-MEL-2 melanoma, in the test on PC-3 prostate, in the test on U251 CNS, with RPMI-8226 leukemia, in the test on CCRF-CEM leukemia and with TK-10 renal was more than 100 µM in each case. The TGI in the test on SNB-19 CNS, in the test with HCT-116 colon, with OVCAR-4 ovarian and in the test with SF-295 CNS was more than 100 µM in each case.

As to `CCCC(CCC)C(=O)OCC1(CO)C/C(=C\c2ccc(F)cc2)C(=O)O1` (stereo not given), the GI50 in the test with SK-MEL-2 melanoma was 17.2 µM; in the test on PC-3 prostate, 10.4 µM; in the test with U251 CNS, 8.07 µM; with RPMI-8226 leukemia, 0.845 µM; in the test on CCRF-CEM leukemia, 0.0233 µM; with TK-10 renal, 6.06 µM. The GI50 was 18.2 µM in the test on SNB-19 CNS, 13.6 µM in the test with HCT-116 colon, 13.9 µM in the test on OVCAR-4 ovarian and 1.99 µM in the test with SF-295 CNS. The TGI came out at 34.1 µM with SK-MEL-2 melanoma; 25 µM in the test on PC-3 prostate; 23.4 µM in the test with U251 CNS; 7.15 µM in the test with RPMI-8226 leukemia; 0.107 µM in the test with CCRF-CEM leukemia; 23.6 µM with TK-10 renal. The TGI in the test on SNB-19 CNS was 32.2 µM; with HCT-116 colon, 27.1 µM; in the test on OVCAR-4 ovarian it was 28.4 µM; with SF-295 CNS, 17.4 µM.
